From US20130071931A1, “PROCESS FOR HEPATIC DIFFERENTIATION FROM INDUCED HEPATIC STEM CELLS, AND INDUCED HEPATIC PROGENITOR CELLS DIFFERENTIATED THEREBY” (NATIONAL CANCER CENTER, priority 2011, published 2013)
Structures can show the parent of a compound that is named as a salt.

Assays:
[1] = test system: human induced hepatic stem cells NGC1-1; test: Quantitative RT-PCR, differentiation with TGF-β signaling inhibitors (Example 11); type: cell-based; conditions: cell samples Nos. 1141-1145: 0.5 μM inhibitor in ReproStem + 10 ng/mL aFGF, no feeder cells, Matrigel, 7 days after seeding; No. 1133 taken as 1
Method: The resultant cell samples are respectively referred to as “Nos. 1141-1145”. No. 1140 was cultured in the absence of any inhibitor. Nos. 1141-1145 were cultured in the presence of the following inhibitors, respectively. No. 1141: […] Cat. No. 2939) No. 1142: […] MERCK Calbiochem; Cat. […] MERCK Calbiochem; Cat. […] Cayman; Cat. No. 13031) No. 1145: […] Cayman; Cat. No. 13341). […] Seven days after the seeding, the cells were lysed in 1 mL/well of a QIAzol reagent to prepare the total RNA from the cell lysate using the miRNeasy Mini Kit (Qiagen). The total RNA was subjected to quantitative RT-PCR using the iScript Advanced cDNA synthesis kit, the SsoAdvanced SYBR Green Supremix ([…]), and the CFX96 Real-Time System C1000 Thermal Cycler, all manufactured by Bio-Rad.

[2] = test system: human induced hepatic stem cells AFB1-1; test: Quantitative RT-PCR, differentiation with TGF-β signaling inhibitors (Example 12); type: cell-based; conditions: cell samples Nos. 1545-1549: 0.5 μM inhibitor in ReproStem (bFGF-free), no feeder cells, Matrigel, 13 days after seeding; for KRT7 expression ratio: No. 1543 taken as 1; for GAPDH expression Ct value: housekeeping gene
Method: The resultant cell samples are respectively referred to as “Nos. 1545-1549”. No. 1544 was cultured in the absence of any inhibitor. Nos. 1545-1549 were cultured in the presence of the following inhibitors, respectively.
Thirteen days after the seeding, the cells were lysed in 1 mL/well of a QIAzol reagent to prepare the total RNA from the cell lysate using the miRNeasy Mini Kit (Qiagen). The total RNA was subjected to quantitative RT-PCR using the iScript Advanced cDNA synthesis kit, the SsoAdvanced SYBR Green Supremix ([…]), and the CFX96 Real-Time System C1000 Thermal Cycler, all manufactured by Bio-Rad. The quantified genes were ALB, AAT, TTR, AFP, cytokeratin 7 (KRT7), cytokeratin 19 (KRT19), and DLK1 (Delta-like 1 homolog).

[3] = test system: human induced hepatic stem cells AFB1-1; test: Quantitative RT-PCR of marker genes, hepatic differentiation on Matrigel (Examples 2-4); type: cell-based; conditions: cell sample No. 391: aFGF 10 ng/mL/ReproStem (bFGF-free), no feeder cells, 13 days, No. 377 taken as 1
[4] = test system: human induced hepatic stem cells AFB1-1; test: AFP in culture supernatant, hepatic differentiation on Matrigel (Examples 2-4); conditions: cell sample No. 391: aFGF 10 ng/mL/ReproStem (bFGF-free), no feeder cells, 13 days after seeding

Row | Molecule | AAT expression ratio [1] | AFP expression ratio [1] | ALB expression ratio [1] | TTR expression ratio [1] | AAT expression Ct value [2] | AFP expression Ct value [2] | ALB expression Ct value [2] | DLK1 expression Ct value [2] | KRT7 expression Ct value [2] | KRT19 expression Ct value [2] | TTR expression Ct value [2] | KRT7 expression ratio [2] | GAPDH expression Ct value [2] | also measured
1 | c1ccc(-c2n[nH]cc2-c2ccnc3ccccc23)nc1 [LY-364947, 4-[3-(2-pyridinyl)-1H-pyrazol-4-yl]-quinoline] | 14.36 | 369.23 | 114.78 | 482.45 |  |  |  |  |  |  |  |  |  | 
2 | NC(=O)c1ccc(-c2nc(-c3ccc4c(c3)OCO4)c(-c3ccccn3)[nH]2)cc1 [SB431542, 4-[4-(1,3-benzodioxol-5-yl)-5-pyridin-2-yl-1H-imidazol-2-yl]benzamide] | 12.15 | 394.40 | 94.46 | 614.17 |  |  |  |  |  |  |  |  |  | 
3 | Cc1cccc(-c2[nH]c(C(C)(C)C)nc2-c2ccc3c(c2)OCO3)n1.Cl [SB-505124, 2-(5-benzo[1,3]dioxol-5-yl-2-tert-butyl-3H-imidazol-4-yl)-6-methylpyridine hydrochloride hydrate] |  |  |  |  | 23.56 | 18.61 | 23.2 | 18.77 | 19.8 | 20.33 | 17.24 | 2768 | 13.25 | 
4 | Cc1cccc(-c2n[nH]cc2-c2ccc3ncccc3n2)n1 [compound 616451, 3-(pyridin-2-yl)-4-(4-quinonyl)-1H-pyrazole] | 13.45 | 747.65 | 163.71 | 966.14 |  |  |  |  |  |  |  |  |  | 
5 | Cc1cccc(-c2n[nH]cc2-c2ccc3ncccc3n2)n1 [compound 616452, 2-(3-(6-methylpyridin-2-yl)-1H-pyrazol-4-yl)-1,5-naphthyridine] | 22.18 | 720.03 | 296.67 | 1,262.14 |  |  |  |  |  |  |  |  |  | 
6 | Cc1cccc(-c2nc(C(C)(C)C)[nH]c2-c2ccc3c(c2)OCO3)n1 [compound 616453, HCl] |  |  |  |  | 24.09 | 20.24 | 25.55 | 18.74 | 19.45 | 20.29 | 18.13 | 4761 | 13.76 | 
7 | Fc1ccc(Cl)cc1-c1nc(Nc2ccncc2)c2nccnc2n1 [compound 616456] |  |  |  |  | 23.54 | 17.48 | 21.35 | 19.1 | 20.05 | 20.45 | 17.4 | 3186 | 13.72 | 
8 | Cc1cccc(-c2[nH]c(C(C)(C)C)nc2-c2ccc3nccnc3c2)n1 [compound 616459, 6-(2-tert-butyl-5-(6-methyl-pyridin-2-yl)-1H-imidazol-4-yl)-quinoxaline] |  |  |  |  | 23.54 | 19.25 | 24.67 | 18.66 | 19.89 | 20.36 | 17.24 | 4905 | 14.24 | 
9 | aFGF: aFGF, 10 ng/mL supplement of bFGF-free ReproStem medium (cell sample No. 391) |  |  |  |  |  |  |  |  |  |  |  |  |  | AAT expression level [3]: 220; AFP expression level [3]: 3,420; ALB expression level [3]: 3,172; DLK1 expression level [3]: 786; TTR expression level [3]: 3,910; α-fetoprotein (AFP) in culture supernatant [4]: 3,300 ng/mL
